Source: US10640507B2, “PBD antibacterial agents” (KING'S COLLEGE LONDON, priority 2015, dated 2020)
In brackets after ≈: the same amount, converted by molar mass.

Key:
Format in all cases: cell-based
[1] = tested on: A. baumannii - NCTC 17978; experiment: Time kill kinetics; conditions: drug at 4×MIC
Method: 1. Grow bacteria overnight.
2. Subculture into an autoclaved conical flask containing 10 ml of TSB to an OD of 0.01 (˜1×10^7 Cfu/ml for KP-M6).
4. Take aliquots (100 μl) at timepoints (0, 1, 2, 4, 6, 24 hours) and carry out a serial dilution in PBS (to remove drug and to dilute bacteria to countable numbers).
5. Use the serial dilution to perform a Miles Misra—i.e. Add 3×10 μl spots of each dilution onto an agar plate. Incubate overnight and count colonies on spots in the morning.
6. Control: Subculture bacteria alongside samples but with no antibiotic added. Take aliquots from this at every time point (0, 1, 2, 4, 6, 24 hours) and perform Miles Misra on these too (as detailed in points 4 and 5 above).
7. After the first experiment, if the counts seen on Miles-Misra were zero, total viable counts were determined by spreading 200 μl in a streak down the centre of a TSB agar plate, waiting for the liquid to be absorbed and then spreading over the plate and checking for growth inhibition at the sight of the original streak.
8. The compound is considered bactericidal if the inoculum was reduced >3 log10 CFU/ml and bacteriostatic if inoculum was reduced by 0-3 log10 CFU/ml.
Three measurements were taken for each compound at each time point. These measurements were averaged and the standard deviation was also calculated.

Psueudomonas GH12 = experiment: General MIC protocol, Gram negative; conditions: Pseudomonas
Method: General Minimum Inhibitory Concentration (MIC) Protocol
1. Grow up cultures of bacterial strains to be tested overnight.
2. Dilute down overnight cultures to concentration of 1×10^6 bacteria/ml (OD0.01) in Tryptic soy broth (TSB).
3. Add 100 μl of TSB media to column 2-column 12 in 96 well plate (keeping column 1 clear).
4. Make up compound to a concentration of 64 μg/ml in water (or alternatively to twice the chosen maximum concentration to be tested).
5. Add 100 μl of antibiotic solution to the 1st and 2nd columns.
6. Using a multichannel pipette take 100 μl from the 2nd column wells and pipette into 3rd column wells and repeat down the 96 well plate (remembering to include controls i.e. uninfected media and media with no antibiotic).
7. To each well (except uninfected control row H) add 100 μl of bacterially infected media at a concentration of 1×10^6/ml.
8. This dilutes down the concentration of the antibiotic by half (top dose is therefore 32 μg/ml in column 1) and also gives you a starting bacterial concentration of 5×10^5/ml.
9. Wrap plate with parafilm to prevent evaporation.
10. Leave at desired temperature (37° C. unless specified elsewhere) for 20 hours.
11. Next day check plates for growth and measure optical density (i.e. absorbance) at a wavelength of 600 nm (OD600).
An example of such a plate is shown in FIG. 1 where column A represents wells that receive the top dose 100 μl; column B represents wells that receive the top dose 100 μl+100 μl TSB; and column C represents wells that receive 100 μl TSB. Row H which is marked by a box labelled D represents a blank where the cells receive no bacteria.
The activity of the compound designated PP-A148 was tested against an extended panel of Klebsiella and Pseudomonas Gram-negative bacterial strains that have proven drug resistant difficult to treat. […] The minimum inhibitory concentration (MIC) was measured using the general MIC protocol given above.

[2] = tested on: HeLa (Cervical cancer cell line); experiment: MTT cytotoxicity assay; conditions: Homo sapiens, MTT, 24 h continuous exposure, read-out: IC50 HeLa (Cervical cancer cell line)
Method: (§1) Two immortalised human cell lines, HeLa and WI38 were used for cytotoxicity screening of the compounds. HeLa is a human cervical cancer cell line and WI38 is a normal healthy cell line. The cell lines were obtained from the American Type Culture Collection. The cell-lines were maintained in monolayer culture in 75 cm2 flasks (TPP, Switzerland) under a humidified 5% CO2 atmosphere at 37° C. The HeLa cell line was maintained in Dulbecco's Modified Eagles Media (DMEM; Invitrogen) supplemented with foetal bovine serum (10% v/v; Invitrogen), L-glutamine (2 mM; Invitrogen), non-essential amino acids (1×; Invitrogen) and Penicillin-Streptomycin (1% v/v, Invitrogen). For WI38, Eagle's Minimum Essential Medium, and Penicillin-Streptomycin (1% v/v, Invitrogen) and foetal bovine serum (10%, nvitrogen) was used. For passaging, cells were washed with phosphate buffered saline [PBS] (GIBCO 14040, Invitrogen, UK), incubated with trypsine (GIBCO 25300, Invitrogen, UK), and re-seeded into fresh medium. For seeding, cells were counted using a Neubauer haemocytometer (Assistant, Germany) by microscopy (Nikon, USA) on a non-adherent suspension of cells that were washed in PBS, trypsinised, centrifuged at 8° C. at 8000 rpm for 5 min and re-suspended in fresh medium.
(§2) The cells were grown in normal cell culture conditions at 37° C. under a 5% CO2 humidified atmosphere using appropriate medium. The cell count was adjusted to 10^5 cells/ml/ and 20,000 cells were added per well. The cells were incubated for 24 hours and 1 μl of the appropriate inhibitor concentrations were to the wells in triplicates. After 24 h of continuous exposure to each compound, the cytotoxicity was determined using the MIT (3-(4,5-Dimethylthiazol-2-yl)-2,5-diphenyltetrazolium bromide) (Lancaster Synthesis Ltd, UK) colorimetric assay. Absorbance was quantified by spectrophotometry at λ=570 nm (Envision Plate Reader, PerkinElmer, USA). IC50 values were calculated by a dose-response analysis using the Prism Graphpad Prism® software. The cytotoxicity results are shown below in Table 12.

WI38 (Healthy cell line) = experiment: MTT cytotoxicity assay; conditions: Homo sapiens, WI-38; MTT; 24 h continuous exposure; highest concentration tested 20 μM; read-out: IC50 WI38 (Healthy cell line)
Method: as §1, §2

A. baumannii AYE = experiment: General MIC protocol, Gram negative; conditions: Acinetobacter baumannii
Procedure, shortened: (§3)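 Read-out: OD600 after 20 h at 37° C, alongside visual growth check. Wells held TSB, compound serially halved from 32 μg/ml final, and bacteria at 5×10^5/ml starting density; no-antibiotic and uninfected controls included.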

K. pneumonia NCTC 13368 = experiment: General MIC protocol, Gram negative; conditions: Klebsiella pneumoniae, NCTC13368
Procedure, shortened: as §3

K. pneumonia NCTC 13443 = experiment: General MIC protocol, Gram negative; conditions: Klebsiella pneumoniae, NCTC13443
Procedure, shortened: as §3

K. pneumonia NCTC 51851 = experiment: General MIC protocol, Gram negative; conditions: Klebsiella pneumoniae, NCTC51851
Procedure, shortened: as §3

| SMILES | Average (CFU/ml) ([1]; time-point 1 hours) | n = 1 (Log CFU/ml) ([1]; time-point 1 hours) | n = 2 (Log CFU/ml) ([1]; time-point 1 hours) | Average (CFU/ml) ([1]; time-point 2 hours) | n = 1 (Log CFU/ml) ([1]; time-point 2 hours) | n = 2 (Log CFU/ml) ([1]; time-point 2 hours) | Average (CFU/ml) ([1]; time-point 4 hours) | n = 1 (Log CFU/ml) ([1]; time-point 4 hours) | n = 2 (Log CFU/ml) ([1]; time-point 4 hours) | Average (CFU/ml) ([1]; time-point 6 hours) | n = 1 (Log CFU/ml) ([1]; time-point 6 hours) | n = 2 (Log CFU/ml) ([1]; time-point 6 hours) | Average (CFU/ml) ([1]; time-point 24 hours) | n = 1 (Log CFU/ml) ([1]; time-point 24 hours) | n = 2 (Log CFU/ml) ([1]; time-point 24 hours) | MIC (Psueudomonas GH12) | IC50 [2] | IC50 (WI38 (Healthy cell line)) | MIC (A. baumannii AYE) | MIC (K. pneumonia NCTC 13368) | further results |
| --- | --- | --- | --- | --- | --- | --- | --- | --- | --- | --- | --- | --- | --- | --- | --- | --- | --- | --- | --- | --- | --- |
| O=C(O)c1cn(C2CC2)c2cc(N3CCNCC3)c(F)cc2c1=O [CIP, ciprofloxacin, reference compound] | 7000 CFU/ml | 19000 Log CFU/ml | 0 Log CFU/ml | 584 CFU/ml | 1500 Log CFU/ml | 0 Log CFU/ml | 10.7 CFU/ml | 0 Log CFU/ml | 30 Log CFU/ml | 0 CFU/ml | 0 Log CFU/ml | 0 Log CFU/ml | 4 CFU/ml | 10 Log CFU/ml | 0 Log CFU/ml | 16 µg/mL (≈ 48.3 µM) | – | – | – | – | – |
| COc1cc2c(cc1OCCCC(=O)Nc1cc(C(=O)Nc3ccc4sc(C(=O)N(C)C)cc4c3)n(C)c1)N=C[C@@H]1CCCN1C2=O [KMR-14-33, (S)—N-(2-(dimethylcarbamoyl)benzo[b]thiophen-5-yl)-4-(4-((7-methoxy-5-oxo-2,3,5,11a-tetrahydro-1H-benzo[e]pyrrolo[1,2-a][1,4]-diazepin-8-yl)oxy)butanamido)-1-methyl-1H-pyrrole-2-carboxamide] | 0 CFU/ml | 0 Log CFU/ml | 0 Log CFU/ml | 0 CFU/ml | 0 Log CFU/ml | 0 Log CFU/ml | 0 CFU/ml | 0 Log CFU/ml | 0 Log CFU/ml | 0 CFU/ml | 0 Log CFU/ml | 0 Log CFU/ml | 0 CFU/ml | 0 Log CFU/ml | 0 Log CFU/ml | – | 15.6 µM | > 20 µM | 1 µg/mL (≈ 1.52 µM) | 2 µg/mL (≈ 3.05 µM) | MIC (K. pneumonia NCTC 13443): 2 µg/mL (≈ 3.05 µM); MIC (K. pneumonia NCTC 51851): 2 µg/mL (≈ 3.05 µM); n = 3 (Log CFU/ml) ([1]; time-point 1 hours): 0 Log CFU/ml; n = 3 (Log CFU/ml) ([1]; time-point 2 hours): 0 Log CFU/ml; n = 3 (Log CFU/ml) ([1]; time-point 4 hours): 0 Log CFU/ml; n = 3 (Log CFU/ml) ([1]; time-point 6 hours): 0 Log CFU/ml; n = 3 (Log CFU/ml) ([1]; time-point 24 hours): 0 Log CFU/ml |
| COc1cc2c(cc1OCCCC(=O)Nc1cc(C(=O)Nc3ccc4oc(C(=O)N5CCSCC5)cc4c3)n(C)c1)N=C[C@@H]1CCCN1C2=O [PP-A148, (S)-4-(4-((7-methoxy-5-oxo-2,3,5,11a-tetrahydro-1H-benzo-[e]pyrrolo[1,2-a][1,4]diazepin-8-yl)oxy)butanamido)-1-methyl-N-(2-(thiomorpholine-4-carbonyl)benzofuran-5-yl)-1H-pyrrole-2-carboxamide] | – | – | – | – | – | – | – | – | – | – | – | – | – | – | – | > 128 µg/mL | > 20 µM | > 20 µM | 2 µg/mL (≈ 2.86 µM) | 16 to 32 µg/mL (≈ 22.9 to 45.8 µM) | MIC (K. pneumonia NCTC 13443): 16 µg/mL (≈ 22.9 µM); MIC (K. pneumonia NCTC 51851): 4 µg/mL (≈ 5.72 µM) |
